# Test system: left squamous-cell carcinoma of the lung
# Experiment: Patient case: squamous-cell carcinoma of the lung
# Type: in vivo, human
# Text: A patient with presented with a left squamous-cell carcinoma of the lung. […] Seven months later the patient received radiotherapy to the left lung. […] The patient undergoes a left pneumonectomy and drug therapy is stopped, but the tumor recurs and the patient dies.
structure (smiles),measurement,setting,value
"CC[C@H](CC[C@@H](C)[C@H]1CC[C@H]2[C@@H]3C[C@H](O)[C@@]4(O)C[C@@H](O)CC[C@]4(C)[C@H]3CC[C@]12C)C(C)C [24-ethyl-cholestane-3β,5α,6α-triol]",general condition,"50 mg/day, after commencing therapy",drastic and rapid improvement
same,fibroscopy,fourteen months after therapy commenced,normal
same,late outcome,nearly five years after commencement of therapy,recurrence of the left lung tumor
same,left lung opacity,"nine months after commencing treatment, radiotherapy to the left lung at seven months",significant regression

# Reference: patent US8293726B2, “Treatment of cancer and other diseases” (Vianova Labs, Inc., priority 2005, dated 2012)
